# Values quoted from earlier work as cited in US11963940B2, “Parenteral esmolol formulation” (AOP ORPHAN PHARMACEUTICALS AG, priority 2012, dated 2024).
# Conditions: after the starting dose, e.g. initial infusion
smiles,measurement,value
"COC(=O)CCc1ccc(OCC(O)CNC(C)C)cc1.Cl (stereo not shown) [esmolol, 4-[2-Hydroxy-3-[(1-methylethyl)amino]propoxy] benzenepropanoic acid methyl ester hydrochloride]",time to steady state plasma concentration,≤ 5 min
